According to PubChem BioAssay (NCI):
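Method: 48-hour compound exposure of cells in 96-well plates, five concentrations, linear interpolation of endpoints. Here, GI50 denotes the concentration required for 50% inhibition of growth. The concentration for full growth arrest is given as TGI.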

Experiments:
Test in all cases: inhibition of tumour cell growth, NCI panel, 48 h
[1] = test system: RPMI-8226 leukemia
[2] = test system: HS 578T breast
[3] = test system: CAKI-1 renal
[4] = test system: TK-10 renal
[5] = test system: HCT-15 colon
[6] = test system: HT29 colon
[7] = test system: COLO 205 colon
[8] = test system: SW-620 colon

| SMILES | TGI [1] [µM] | TGI [2] [µM] | TGI [3] [µM] | TGI [4] [µM] | TGI [5] [µM] | TGI [6] [µM] | TGI [7] [µM] | TGI [8] [µM] | GI50 [2] [µM] | GI50 [3] [µM] | GI50 [4] [µM] | GI50 [5] [µM] | GI50 [6] [µM] | GI50 [7] [µM] | GI50 [8] [µM] | GI50 [1] [µM] |
| --- | --- | --- | --- | --- | --- | --- | --- | --- | --- | --- | --- | --- | --- | --- | --- | --- |
| COc1ccc2c(n1)Sc1nc3ccccc3nc1N2 | > 100 | > 100 | > 100 | 80.1 | > 100 | > 100 | > 100 | > 100 |  |  |  |  |  |  |  |  |
| CCCCCCOC(=O)CC1=C(C)/C(=C/c2[nH]c(-c3ccc[nH]3)cc2OC)N=C1C |  | 1.17 | 1.12 | 1.38 | 1.14 | 1.05 | 1.09 | 1.35 | 0.133 | 0.0706 | 0.108 | 0.0315 | 0.0331 | 0.087 | 0.0384 |  |
| Clc1cc(Br)ccc1-c1ccc(CNCC2CCNCC2)o1 | 4.46 | 4.37 | 3.58 | 3.37 | 4.29 | 3.11 | 3.51 | 3.72 | 1.91 | 1.85 | 1.75 | 1.86 | 1.44 | 1.89 | 1.85 | 1.86 |
| Cc1nnn(C)c1-c1cnc2c3ccc(C(C)(C)O)cc3n([C@H](c3ccccc3)C3CCOCC3)c2c1 | 27.9 | > 100 | 13.2 | 11 | 14.6 | > 42 | 30.1 | > 72.1 | < 0.01 | < 0.01 | < 0.01 | < 0.0106 | < 0.01 | < 0.01 | 7 | < 0.01 |
| COc1cc2c(cc1OC)[C@@H]1C(=O)c3ccc4c(c3O[C@@H]1CO2)C[C@H](C(C)C)O4 | 9.08 | > 46.6 | > 47.4 | > 49 | > 71 | > 58.6 | 20.8 | > 46.7 | 8.15 | 4.41 | 5.37 | 9.26 | 15.4 | 6.19 | 9.05 | 0.0152 |
| CCNCC(=O)Nc1ccc2c(c1)C(=O)c1ccc(NC(=O)CNCC)cc1C2=O |  | 22.1 | 29.6 | 18.7 | 8.29 | 9.87 | 3.69 | 12.8 |  |  |  |  |  |  |  |  |
| COC(=O)c1c2c(c(C)[n+]([O-])c1C)C(=O)C(NCc1ccccc1)=CC2=O | 10.1 | 82.4 | 14.3 | 18.7 | 4.44 | 10.2 | 2.67 | 10.6 | 7 | 2.84 | 4.48 | 1.7 | 1.97 | 0.977 | 3.12 | 2.61 |
| CCc1cc2c(c(OCC(F)(F)F)c(C(=O)NC3CCN(C(=O)CO)CC3)n2C)c(=O)n1CC(=O)c1ccccc1 | > 100 | > 100 | > 100 | > 100 | > 100 | > 100 | > 100 | > 100 | 34.4 | > 60.3 | > 100 | 52.3 | 65 | > 100 | > 59.4 | 27.7 |
| COC(=O)[C@H](Cc1cn(C)cn1)NC(=O)[C@H](CC(C)C)NC(=O)Nc1cc(C(F)(F)F)cc(C(F)(F)F)c1 | > 10 | > 10 | > 10 | > 10 | > 10 | > 10 | > 10 | > 10 | > 10 | > 10 | > 10 | > 10 | 8.05 | > 10 | 5.28 | 4.98 |
| COc1cc2c3c(n(CCCN=[N+]=[N-])c(=O)c2cc1OC)-c1ccccc1C3=O | > 100 |  | 7.77 | 75.5 | > 100 | > 100 |  | > 100 |  | 2.13 | 13.8 | 27.4 | > 100 |  | 12 | 6.19 |
| Clc1ccc(-c2cnc3c(-c4ccnc(N5CCNCC5)c4)cnn3c2)cc1 | 4.05 |  | 3.51 | 3.43 | 5.18 | 2.53 | 3.77 | 3.27 |  | 1.9 | 1.99 | 2.7 | 1.24 | 2.14 | 1.78 | 1.86 |
| COc1ccc(C(=O)/C=C/c2cc(-c3ccc(OC)c(OC)c3)n[nH]2)cc1OC | 2.26 | > 100 |  | 47.7 | 5.39 | 4.95 | 3.1 | 5.41 | 3.76 |  | 4.96 | 1.09 | 1.38 | 1.55 | 1.5 | 0.357 |
| COC(=O)CCc1n(Cc2ccc3ccccc3c2)c2ccccc2[n+]1Cc1ccc2ccccc2c1 |  | 3.47 |  | 2.96 | 8.08 | 1.97 | 2.21 | 2.85 | 1.43 |  | 1.49 | 2.71 | 0.571 | 0.614 | 1.27 |  |
| CCN1/C(=C/C(C)=C/c2sc3ccc4ccccc4c3[n+]2CC)Sc2ccc3ccccc3c21 | 0.131 |  | 1.15 | 0.997 | 0.744 | 0.233 |  | 0.277 |  | 0.264 | 0.217 | 0.219 | 0.109 |  | 0.114 | < 0.0134 |
| Cc1cc(-c2nc3sc(C)cn3c2/C=N/N=C(N)N)c(C)s1 |  |  | 32.4 | 18.6 | 40 | 20.2 | 19 | 18.4 |  | 17.4 | 6.12 | 19.8 | 3.74 | 4.76 | 3.33 |  |
| N#Cc1c(N)nc2c(c1-c1ccc(Cl)cc1)COc1ccc(F)cc1-2 | 41.2 |  | 66.3 | > 100 | 84.7 | > 100 |  | 97.4 |  | 25.2 | 34.7 | 24.1 | 39.4 |  | 31.1 | 18.7 |
| CN1CCc2ccccc2C1Cc1ccccc1NC(=O)c1sc2ccccc2c1Cl (stereo unspecified) | > 100 | > 100 | > 100 | > 100 | > 100 |  | > 100 | > 100 |  |  |  |  |  |  |  |  |
| COc1ccc(O)c(/C=N\Nc2ccccc2)c1 | 5.94 | > 100 |  |  | > 100 | 29.9 | 26.2 | 22.6 |  |  |  |  |  |  |  |  |
